# Columns and labels:
# Experiment in all cases: relative viability (nuclei count vs DMSO), 5 days (fraction); higher = more cells survive
# Midostaurin + Phenformin = compound: CO[C@@H]1[C@H](N(C)C(=O)c2ccccc2)C[C@H]2O[C@]1(C)n1c3ccccc3c3c4c(c5c6ccccc6n2c5c31)C(=O)NC4 [Midostaurin] + N=C(N)NC(=N)NCCc1ccccc1 [Phenformin] (partner 250 µM)
# Outline: (§1)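 Values are medians from duplicate plates. Each reflects relative viability, defined as the nuclei count of treated wells over that of vehicle wells. Lung cancer cell lines in 1536-well plates were pin-tool dosed one day after seeding with one drug alone or with a fixed anchor-drug dose plus five library-drug doses (not always all listed) in √10 steps, then fixed, stained and imaged at 4× after 5 days.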
# [1] = compound: COc1cc(-c2nn([C@H]3CC[C@H](N4CCN(C(C)=O)CC4)CC3)c3ncnc(N)c23)ccc1NC(=O)c1cc2ccccc2n1C + CC(=O)Nc1cccc(-n2c(=O)n(C3CC3)c(=O)c3c(Nc4ccc(I)cc4F)n(C)c(=O)c(C)c32)c1 [Trametinib] (partner 0.02 µM)
# Outline: as §1
# [2] = compound: COc1cc(-c2nn([C@H]3CC[C@H](N4CCN(C(C)=O)CC4)CC3)c3ncnc(N)c23)ccc1NC(=O)c1cc2ccccc2n1C + CS(=O)(=O)N1CCN(Cc2cc3nc(-c4cccc5[nH]ncc45)nc(N4CCOCC4)c3s2)CC1 [Pictilisib] (partner 1 µM)
# Outline: as §1
# [3] = compound: COc1cc(-c2nn([C@H]3CC[C@H](N4CCN(C(C)=O)CC4)CC3)c3ncnc(N)c23)ccc1NC(=O)c1cc2ccccc2n1C + Cc1cc(Nc2cc(N3CCN(C)CC3)nc(Sc3ccc(NC(=O)C4CC4)cc3)n2)n[nH]1 [Tozasertib] (partner 0.1 µM)
# Outline: as §1
# [4] = compound: COc1cc(-c2nn([C@H]3CC[C@H](N4CCN(C(C)=O)CC4)CC3)c3ncnc(N)c23)ccc1NC(=O)c1cc2ccccc2n1C + O=C(CCCCCCC(=O)Nc1ccccc1)NO [Vorinostat] (partner 1 µM)
# Outline: as §1
Cell Line,relative viability (Midostaurin + Phenformin; first compound 0.01 µM),relative viability (Midostaurin + Phenformin; first compound 0.03162 µM),relative viability (Midostaurin + Phenformin; first compound 0.1 µM),relative viability (Midostaurin + Phenformin; first compound 0.3162 µM),relative viability ([1]; first compound 0.0128 µM),relative viability ([1]; first compound 0.04048 µM),relative viability ([1]; first compound 0.128 µM),relative viability ([1]; first compound 1.28 µM),relative viability ([2]; first compound 0.0128 µM),relative viability ([2]; first compound 0.04048 µM),relative viability ([2]; first compound 0.128 µM),relative viability ([2]; first compound 1.28 µM),relative viability ([3]; first compound 0.0128 µM),relative viability ([3]; first compound 0.04048 µM),relative viability ([3]; first compound 0.128 µM),relative viability ([3]; first compound 1.28 µM),relative viability ([4]; first compound 0.0128 µM),relative viability ([4]; first compound 0.04048 µM),relative viability ([4]; first compound 0.128 µM),relative viability ([4]; first compound 1.28 µM)
NCI-H2170,0.357,0.384,0.404,0.347,0.992,0.797,0.919,0.876,0.297,0.353,0.334,0.248,0.805,0.738,0.688,0.639,1.09,0.969,0.8,0.704
NCI-H2228,0.405,0.363,0.366,0.5,0.448,0.146,0.539,0.377,0.408,0.275,0.337,0.375,0.273,0.242,0.22,0.157,0.869,0.609,0.568,0.527
NCI-H2347,0.254,0.384,0.337,0.248,0.292,0.236,0.263,0.225,0.754,0.579,0.772,0.414,0.475,–,0.486,0.42,0.658,0.499,0.521,0.543
NCI-H2405,0.415,0.441,0.377,0.491,0.645,0.307,0.532,0.347,0.422,0.26,0.303,0.258,0.741,0.601,0.656,0.391,1.01,0.886,0.834,0.374
NCI-H3122,0.376,0.369,0.372,0.363,0.209,–,0.165,0.162,0.552,–,0.548,0.484,0.396,0.342,0.343,0.454,1.49,–,0.889,0.861
PC-3 [JPC-3],0.497,0.474,0.491,0.517,0.746,0.705,0.678,0.802,0.65,0.791,0.721,0.764,0.845,0.904,0.802,0.896,0.667,0.989,0.808,1.01
PC-14,0.603,0.717,0.522,0.52,0.819,0.721,0.663,0.569,0.744,0.792,0.664,0.625,0.562,0.688,0.559,0.636,0.931,0.823,0.653,0.716
RERF-LC-KJ,0.454,0.376,0.391,0.379,0.844,0.818,0.867,0.749,0.572,0.557,1.11,0.538,0.51,0.522,0.401,0.424,0.754,0.737,0.75,0.619
SK-LU-1,0.521,0.54,0.49,0.421,0.455,0.316,0.432,0.336,0.54,0.488,0.498,0.269,0.346,0.352,0.273,0.226,0.797,0.763,0.765,0.724
SK-MES-1,0.647,0.582,0.631,0.562,0.563,0.4,0.539,0.279,0.343,0.402,0.361,0.221,0.906,1.01,0.827,0.936,1.17,1.14,1.08,1.13
SW 1573,0.379,0.462,0.41,0.308,0.52,0.556,0.492,0.477,0.496,0.497,0.497,0.362,0.201,0.108,0.175,0.148,0.805,0.735,0.817,0.723
UMC-11,0.3,0.328,0.32,0.281,0.654,0.689,0.67,0.661,0.89,0.788,0.767,0.71,0.225,0.19,0.197,0.193,0.44,0.38,0.351,0.342

# — the supplement of paper PMC10307832
